# Assay results: patent US4981869A, “Xanthates as antitumor agents” (priority 1980, dated 1991)
# Where two headings read alike, the source gives them in different places.
# What was measured:
# [1] = system: numerous different representative virus types; experiment: antiviral activity, plaque-reduction tests against numerous virus types; assay type: cell-based; details: in words
# [2] = system: transformed (tumor) cells; experiment: antitumor activity (general statement); assay type: cell-based; details: in words
# Excerpt: The compounds of the present invention, and pharmaceutical compositions containing the same, display a drastic influence on the growth patterns and on the morphological appearance of various experimentally-transformed cells in tissue culture while, at the same time, not influencing these properties of normal cell cultures.
# same viral strain = experiment: refined plaque reduction assay; assay type: cell-based; details: read-out: IC50 (50% reduction in plaque forming units)
# selected herpes viruses = experiment: resistance development test; assay type: cell-based; details: prolonged suboptimal concentrations, manifold passage
# [3] = system: primate (monkey) cells transformed by human brain tumor (oligodendroglioma) DNA; experiment: Low Serum Test
# Excerpt: Normal cells fail to grow under these conditions.
# In this test, as a tissue culture, primate (monkey) cells are used which have acquired the transformed phenotype after exposure of the cells to human brain tumor (oligodendroglioma) genetic substance (DNA). A genetically-homogeneous transformed tissue culture (a clonal line) is exposed to forty (40) micrograms per milliliter of the test compound for a period of four (4) days. Parallel cultures are maintained during the treatment.
# After the transient exposure to the drug, the cells are suspended in drug-free medium (at pH 7.2) containing ten percent (10%) serum, or in low-serum (0.5%).
# Influenza A2 = experiment: plaque inhibition test, influenza; assay type: cell-based; details: Substance concentration: 200γ/0,02 ml; 1% solution; chick fibroblasts
# Vaccine virus = assay type: cell-based; details: Substance concentration: 200γ/0,02 ml; 1% solution; chick fibroblasts
# Herpes virus = experiment: plaque inhibition test, herpes; assay type: cell-based; details: Substance concentration: 200γ/0,02 ml; 1% solution; human amnion cells
# various virus strains = experiment: in-vitro plaque reduction test; assay type: cell-based; details: 20 γ/ml
# Coxsackie B5 = experiment: plaque-reduction test, Coxsackie B5; assay type: cell-based; details: twenty micrograms per milliliter, on the order of, read-out: Percentage PFU compared with control at 100%
# Experimental: (§1) The compounds of the invention are active in the plaque-reduction test, a standard test for determining antiviral activity and potency, as already stated. One such standard direct plaque assay is that described by E. C. Herrmann Jr. et al., Proc. Soc. Exptl. Biol. Med. 103, 625 […]. This is the test procedure first employed and its principle is well established. It involves the following: Tissue culture cells are grown in small wells as monolayers and infected with appropriate virus dilutions. They are then overlayed with semisolid media to prevent spreading of the viral progeny to originally-uninfected cells. From the infected cells alone, foci of secondary infections develop within three (3) days, and these can be visualized as plaques after appropriate staining according to well-known procedure. To determine the inhibitory effect of a compound, the compound is administered directly onto the infected cells prior to the addition of the overlay, and the virus yield is then compared with the yield from untreated infected cell cultures. The percentage of plaque reduction or inhibition is then expressed in comparison with the 100% plaque-forming units (PFU) as taken from the uninhibited control.
# (§2) When compared with the uninhibited control, plaque reduction with a compound of the invention at twenty micrograms per milliliter was on the order of the following: […]
# HSV-I = experiment: plaque-reduction test, HSV-I; assay type: cell-based; details: Human alphaherpesvirus 1, twenty micrograms per milliliter, on the order of, read-out: Percentage PFU compared with control at 100%
# Experimental: as §1, §2
# HSV-I-ISO 3 = experiment: plaque-reduction test, HSV-I-ISO 3; assay type: cell-based; details: twenty micrograms per milliliter, on the order of, read-out: Percentage PFU compared with control at 100%
# Experimental: as §1, §2
# HSV-I-WA = experiment: plaque-reduction test, HSV-I-WA; assay type: cell-based; details: twenty micrograms per milliliter, on the order of, read-out: Percentage PFU compared with control at 100%
# Experimental: as §1, §2
# HSV II-HG-52 = experiment: plaque-reduction test, HSV II-HG-52; assay type: cell-based; details: twenty micrograms per milliliter, on the order of, read-out: Percentage PFU compared with control at 100%
# Experimental: as §1, §2
# HSV I-ISO 6 = experiment: plaque-reduction test, HSV I-ISO 6; assay type: cell-based; details: twenty micrograms per milliliter, on the order of, read-out: Percentage PFU compared with control at 100%
# Experimental: as §1, §2
# VSV = experiment: microbe, parasite or virus in culture; assay type: cell-based; details: Vesicular stomatitis virus, read-out: Percentage PFU compared with control at 100%
# HSV-I-A NG = experiment: plaque-reduction test, HSV-I-A NG; assay type: cell-based; details: 5.5 micrograms/ml, on the order of, read-out: Percentage PFU compared with control at 100%
# Experimental: as §1, §2
# [4] = system: transformed hamster cells; experiment: reversion of transformed hamster cells (FIG. 3); assay type: cell-based; details: 20 micrograms per milliliter
# Excerpt: FIG. 3 is a graph showing the reversion of transformed malignant phenotype cells shown in FIG. 1, i.e., transformed hamster cells which produce tumors in the animal, to phenotypically normal or flat revertant cells of the type shown in FIG. 2, which reversion was accomplished by a transient treatment of the malignant cells in tissue culture medium with twenty (20) micrograms per milliliter of a compound of the invention, in this case the compound D609, for three (3) succeeding passages, the period of each passage having a duration of one week. In the graph, the empty circles depict untreated cultures, whereas the solid circles depict […].
# skin tumors = experiment: skin tumor prevention experiment in mice; assay type: in vivo
# Excerpt: In tumor-prevention experiments, the compounds of the present invention are found to prevent tumors in animals. In a representative carcinogenesis experiment, skin tumors are induced in mice according to the procedure of G. Fuerstenberger, D. L. Berry, B. Sorg, and F. Marks, "Skin Tumor Promotion by Phorbol Ester a Two-Stage Process", Proc. Natl. Acad. Sci., USA 78, 7722-7726 (1981). In replicate experiments, conducted under closely controlled conditions, and with identical strains of mice, seventeen (17) out of eighteen (18) animals in the control group developed skin tumors after a period of three (3) months. […] In the case of the treated animals, only one (1) out of the eighteen (18) animals developed a discernible skin tumor.
# [5] = system: Herpes simplex virus (HSV-I, especially strain HSV-I-ISO 3); experiment: plaque-reduction assay, Herpes simplex virus; assay type: cell-based; details: Human alphaherpesvirus 1
# [6] = refined procedure, same pH and environmental conditions, same viral strain
smiles,measurement,setting,value
CC1(C)C2CCC1(C)C(C1CCCCC1OC(=S)S)C2 (centres unmarked),antiviral activity (relative to reference compound),[1],essentially the same antiviral and antitumor activity as D622
same,antitumor activity (relative to reference compound),[2],essentially the same antiviral and antitumor activity as D622
"S=C(S)O[C@H]1C[C@H]2CC[C@@H]1C2 (relative stereo) [Example 6, Potassium 2-endo-bicyclo[2.2.1^1.4]-heptyl xanthate]",IC50,same viral strain,3 µg/mL
same,development of resistance,selected herpes viruses,under no conditions was resistance found to have developed
same,variability of antitumor effectiveness with environment and pH (relative to D609),[3],somewhat less variable with environment and pH than in the case of the compound D609
"S=C(S)O[C@@H]1C[C@H]2CC[C@@H]1C2 (relative stereo) [Example 8, Potassium 2-exo-bicyclo[2.2.1^1,4]-heptyl xanthate]",IC50 values (relative to D611),[1],"essentially identical with those of the compound D611, including IC50 values"
same,antiviral activity (relative to reference compound),[1],essentially identical with those of the compound D611
same,antitumor activity (relative to reference compound),[2],essentially identical with those of the compound D611
"S=C(S)O[C@H]1C[C@H]2CC[C@@H]1C2 (relative stereo) [Example 9, Sodium 2-endo-bicyclo [2.2.1^1,4]-heptyl xanthate]",Virustatic properties Influenza (inhibition areola),Influenza A2,++ (good (IA 20-30 mm))
same,Virustatic properties Vaccine (inhibition areola),Vaccine virus,+++ (very good (IA > 30 mm))
same,Virustatic properties Herpes (inhibition areola),Herpes virus,+++ (very good (IA > 30 mm))
same,antiviral activity (relative to reference compound),[1],essentially the identical antiviral and antitumor activity as the corresponding potassium salt (D611)
same,antitumor activity (relative to reference compound),[2],essentially the identical antiviral and antitumor activity as the corresponding potassium salt (D611)
"Cl.NC12CC3CC(CC(C3)C1)C2 [1-Aminoadamantane hydrochloride, reference compound]",Virustatic properties Influenza (inhibition areola),Influenza A2,+++ (very good (IA > 30 mm))
same,Virustatic properties Vaccine (inhibition areola),Vaccine virus,0
same,Virustatic properties Herpes (inhibition areola),Herpes virus,0
same,inhibition at 20 µg/mL,various virus strains,10%
"S=C([S-])OC1CCCCCCCCCCC1.[Na+] [Example 1, Sodium cyclododecyl xanthate]",Virustatic properties Influenza (inhibition areola),Influenza A2,+++ (very good (IA > 30 mm))
same,Virustatic properties Vaccine (inhibition areola),Vaccine virus,+++ (very good (IA > 30 mm))
same,Virustatic properties Herpes (inhibition areola),Herpes virus,+++ (very good (IA > 30 mm))
same,inhibition at 20 µg/mL,various virus strains,100%
same,IC50,same viral strain; [6],2.5 µg/mL
same,development of resistance,selected herpes viruses,under no conditions was resistance found to have developed
same,variability of antitumor effectiveness with environment and pH (relative to D609),[3],somewhat less variable with environment and pH than in the case of the compound D609
"S=C(S)OCc1ccccc1 [Example 2, Sodium benzyl xanthate]",Virustatic properties Influenza (inhibition areola),Influenza A2,+ (moderate (IA 10-20 mm))
same,Virustatic properties Vaccine (inhibition areola),Vaccine virus,+ (moderate (IA 10-20 mm))
same,Virustatic properties Herpes (inhibition areola),Herpes virus,+ (moderate (IA 10-20 mm))
same,IC50,same viral strain; [6],> 30 µg/mL
"S=C([S-])OC1CCCCC1.[Na+] [Example 3, Sodium cyclohexyl xanthate]",Virustatic properties Influenza (inhibition areola),Influenza A2,++ (good (IA 20-30 mm))
same,Virustatic properties Vaccine (inhibition areola),Vaccine virus,+++ (very good (IA > 30 mm))
same,Virustatic properties Herpes (inhibition areola),Herpes virus,+++ (very good (IA > 30 mm))
same,inhibition at 20 µg/mL,various virus strains,100%
same,IC50,same viral strain; [6],9.5 µg/mL
"S=C(S)OC12CC3CC(CC(C3)C1)C2 [Example 5, Potassium adamantyl xanthate]",Virustatic properties Influenza (inhibition areola),Influenza A2,+ (moderate (IA 10-20 mm))
same,Virustatic properties Vaccine (inhibition areola),Vaccine virus,+ (moderate (IA 10-20 mm))
same,Virustatic properties Herpes (inhibition areola),Herpes virus,+ (moderate (IA 10-20 mm))
same,IC50,same viral strain; [6],> 10 µg/mL
"S=C(S)OC1CC2CC1C1CCCC21 (centres unmarked) [Example 7, Potassium 8(9)tricyclo[5.2.1.0^2,6]decyl xanthate]",activity at 20 µg/mL,Coxsackie B5,4%
same,activity at 20 µg/mL,HSV-I,2.5%
same,activity at 20 µg/mL,HSV-I-ISO 3,1.05%
same,activity at 20 µg/mL,HSV-I-WA,0.9%
same,activity at 20 µg/mL,HSV II-HG-52,0.3%
same,activity at 20 µg/mL,HSV I-ISO 6,0.1%
same,activity at 20 µg/mL,VSV,0.05%
same,activity at 5.5 µg/mL,HSV-I-A NG,0.1%
same,IC50,same viral strain; [6],3 µg/mL
same,development of resistance,selected herpes viruses,under no conditions was resistance found to have developed
same,loss of the transforming tumor producing genomes,[4]; three passages,permanent loss of the transforming tumor producing genomes
same,reversion of transformed phenotype,[4]; three succeeding passages of one week each,disappearance of the transformed colonies or cells and their conversion into phenotypically normal or flat revertant cells
same,animals that developed a discernible skin tumor,"skin tumors; epicutaneous, 3 micrograms per milliliter in acetone, twice weekly for 3 months, control 17 of 18",1 out of the eighteen (18) animals
same,development of tumors,skin tumors; in words,almost completely impeded
same,pH dependence of antiviral activity,[3]; pH 6.8 compared with 7.25-7.8,most effectively at a pH of 6.8
"CC1(C)C2CCC1(C)C(C1CCC(OC(=S)S)CC1)C2 (centres unmarked) [Example 10, Potassium 4(or para)-isobornylcyclohexyl xanthate]",IC50,[5],1.9 µg/mL
same,antiviral activity (relative to reference compound),[1],"essentially identical with that for the compound D609, but somewhat superior thereto"
same,antitumor activity (relative to reference compound),[2],"essentially identical with that for the compound D609, but somewhat superior thereto"
"CCCCCCCCCCCCOC(=S)[S-].[Na+] [n-Dodecyl Na, Sodium dodecyl xanthate]",Virustatic properties Influenza (inhibition areola),Influenza A2,+++ (very good (IA > 30 mm))
same,Virustatic properties Vaccine (inhibition areola),Vaccine virus,+++ (very good (IA > 30 mm))
same,Virustatic properties Herpes (inhibition areola),Herpes virus,+++ (very good (IA > 30 mm))
same,inhibition at 20 µg/mL,various virus strains,100%
same,IC50,same viral strain; [6],7 µg/mL
CCCCCCOC(=S)[S-].[K+] [potassium n-hexyl xanthate],virustatic / antiviral activity,[1],active virustatic agents
CCCCCCOC(=S)[S-].[Na+] [sodium n-hexyl xanthate],virustatic / antiviral activity,[1],active virustatic agents
